Each structure is given as a SMILES string.

One assay addresses Cap-dependent endonuclease (CEN); RNP fraction containing PB1•PB2•PA complex (Influenza A virus, UniProt P15659). Kind of assay: Measurement of cap-dependent endonuclease (CEN) inhibitory activity. Type of assay: biochemical, influenza A/WSN/33 virus. The settings on record: RNP enzyme from A/WSN/33 virus, capped Cy3/BHQ2-labelled 30mer RNA substrate, 60 minutes at room temperature; read-out: CEN IC50.
A word on the IC50: it is the point on the concentration scale where inhibition reaches its midpoint. As to `O=C(O)c1cn(CC2CCCC2)cc(O)c1=O` [Example 18], the concentration for half-maximal inhibition (IC50) is 845 nM.
The same measure, in the same setting: the figure for `O=C(O)c1cn(C[C@@H]2CCCN2c2ccccc2)cc(O)c1=O` [Example 57] is 426 nM; for `O=C(O)c1cn(CC2CCCCN2C(=O)OCc2ccccc2F)cc(O)c1=O` (stereo not drawn) [Example 127] it is 313 nM.
On the same count and under the same terms, the figure for `O=C(O)c1cn(CC2(c3ccccc3)Cc3ccccc3C2)cc(O)c1=O` [Example 182] is 278 nM.
Still for that read-out and setting: the figure for `O=C(O)c1cn(Cc2ccccc2-c2ccccc2)cc(O)c1=O` [Example 10] is 219 nM; for `CCCCS(=O)(=O)NC(=O)c1cn(Cc2ccccc2-c2ccccc2)cc(O)c1=O` [Example 197] it is 531 nM.
With `O=C(O)c1cn(CC2(c3ccccc3)CCCC2)cc(O)c1=O` [Example 112], the IC50 is 61 nM.
On the same count and under the same terms, the figure for `O=C(O)c1cn(CC2(c3ccccn3)CCCC2)cc(O)c1=O` [Example 177] is 110 nM; for `O=C(O)c1cn(Cc2ccccc2-c2ccc(NCC3CCCCC3)nc2)cc(O)c1=O` [Example 52] it is 459 nM.
For `COc1ncc(-c2ccccc2Cn2cc(O)c(=O)c(C(=O)O)c2)cn1` [Example 46], the IC50 was determined as 325 nM.
The same measure, in the same setting: the figure for `O=c1c(O)cn(Cc2ccccc2-c2ccc(F)c(Cl)c2)cc1O` [Example 222] is 513 nM.
Consider `N#Cc1ccccc1CN1CCCCC1Cn1cc(O)c(=O)c(C(=O)O)c1` (stereo not drawn) [Example 116], for which the IC50 came out at 221 nM.
For `O=C(O)c1cn(CC2(c3ccccc3)CCOCC2)cc(O)c1=O` [Example 183], the IC50 was determined as 177 nM.
The same measure, in the same setting: the figure for `O=C(O)c1cn(CC2(n3ccc4ccccc43)CCCC2)cc(O)c1=O` [Example 186] is 35 nM.
Same read-out and setting: the figure for `O=C(O)c1cn(CC2(c3cccc(C(F)(F)F)c3)CCCC2)cc(O)c1=O` [Example 167] is 12 nM.
The same measure, in the same setting: the figure for `O=C(O)c1cn(CC2(c3nc4ccccc4s3)CCCC2)cc(O)c1=O` [Example 173] is 47 nM; for `O=C(O)c1cn(CC2(c3ccc4c(c3)OCO4)CCCC2)cc(O)c1=O` [Example 171] it is 16 nM.
Turning to `O=C(O)c1cn(CC2(n3ccc4cccnc43)CCCC2)cc(O)c1=O` [Example 185], the IC50 is 5 nM.
On the same count and under the same terms, the figure for `O=C(O)c1cn(CC2(c3cccc4ccccc34)CCCC2)cc(O)c1=O` [Example 178] is 28 nM; for `CC(=O)c1ccc(-c2ccccc2Cn2cc(O)c(=O)c(C(=O)O)c2)cc1` [Example 22] it is 217 nM.
For `O=C(NS(=O)(=O)C1CC1)c1cn(Cc2ccccc2-c2ccccc2)cc(O)c1=O` [Example 195], the half-inhibitory concentration (IC50) worked out at 677 nM.

Still in this assay, the particulars now being: statement in text following Table 36; same CEN assay; read-out: IC50 (CEN).
With `Cn1cc(C2(Cn3cc(O)c(=O)c(C(=O)O)c3)CCCC2)c2ncccc21` [Example 242], the half-inhibitory concentration (IC50) was at most 1000 nM.
For `O=C(O)c1cn(CC2(c3cccc(N4CCCS4(=O)=O)c3)CCCC2)cc(O)c1=O` [Example 236], the 50% inhibitory concentration (IC50) was at most 1000 nM.
With `CC(C)(Cn1cc(O)c(=O)c(C(=O)O)c1)c1ccccc1` [Example 227], the IC50 is at most 1000 nM.
Same read-out and setting: the figure for `O=C(O)c1cn(CC2(c3cccc(N4CCCCC4=O)c3)CCCC2)cc(O)c1=O` [Example 235] is at most 1000 nM.
With `O=C(O)c1cn(CC2(c3cccc(N4CCCC4=O)c3)CCCC2)cc(O)c1=O` [Example 234], the IC50 is at most 1000 nM.
Still for that read-out and setting: the figure for `O=C(O)c1cn(CC2(n3ccc4cc(Cl)cnc43)CCCC2)cc(O)c1=O` [Example 240] is at most 1000 nM; for `O=C(O)c1cn(Cc2cccn2-c2ccccc2)cc(O)c1=O` [Example 226] it is at most 1000 nM; for `Cn1cc(C2(Cn3cc(O)c(=O)c(C(=O)O)c3)CCCC2)c2ccccc21` [Example 244] it is at most 1000 nM.
The same measure, in the same setting: the figure for `O=C(O)c1cn(CC2(C(=O)Nc3ccccc3)CCCC2)cc(O)c1=O` [Example 232] is at most 1000 nM; for `O=c1c(O)cn(CC2(c3cccc(F)c3)CCCC2)cc1-c1nnn[nH]1` [Example 233] it is at most 1000 nM; for `Cn1cc(C2(Cn3cc(O)c(=O)c(C(=O)NS(C)(=O)=O)c3)CCCC2)c2ccccc21` [Example 246] it is at most 1000 nM.
As to `O=C(O)c1cn(CC2(c3ccnc(NCC4CCCCC4)c3)CCCC2)cc(O)c1=O` [Example 239], the IC50 was at most 1000 nM.
The same measure, in the same setting: the figure for `O=C(O)c1cn(CC2(C(=O)c3ccccc3)CCCC2)cc(O)c1=O` [Example 231] is at most 1000 nM; for `O=C(O)c1cn(CC2(n3cc(C(F)(F)F)c4cccnc43)CCCC2)cc(O)c1=O` [Example 243] it is at most 1000 nM; for `O=C(O)c1cn(CC2(c3ccnc(-n4cccn4)c3)CCCC2)cc(O)c1=O` [Example 238] it is at most 1000 nM.

(Values after patent US8835461B2, “Substituted 3-hydroxy-4-pyridone derivative” (priority 2009, dated 2014).)
